The text below walks through data of ChEMBL document CHEMBL1201862, “PubChem BioAssay data set” (2004).

Some test systems named below: SK-MEL-28; SK-OV-3; Malme-3M; OVCAR-3; OVCAR-5; A498; K562; UACC-257; HT-29; OVCAR-4; TK-10; HCT-15; OVCAR-8; HCT-116; HL-60; RXF 393.
Holding throughout (experiment): NCI tumour cell line growth inhibition, 48 h

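A five-concentration, 48-hour dose response in 96-well plates underlies each endpoint, interpolated linearly between surrounding concentrations. GI50 is the concentration that inhibits growth by half.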 The source made the active and inactive calls. Rule as the data show it: active = GI50 up to about 1.1 µM and inactive = higher.

As to `COc1ccc(/C=C2\Cc3ccccc3C2=O)cc1OC`, the GI50 in the test on SK-MEL-28, in the test with SK-OV-3, in the test on Malme-3M, with OVCAR-3, in the test with OVCAR-5 and with A498 was > 100 µM (inactive) throughout. In addition, the GI50 was > 100 µM (inactive) in the test with K562; > 100 µM (inactive) with UACC-257; > 100 µM (inactive) in the test on HT-29; > 100 µM (inactive) with OVCAR-4; > 100 µM (inactive) in the test on TK-10; above 100 µM in the test with HCT-15. In addition, the GI50 in the test on OVCAR-8 was > 100 µM (inactive).

Turning to `C=C1C(=O)O[C@H]2C[C@@H](C)[C@@H]3CC(=O)OC[C@@]3(C)CC12` (stereo partly specified), the GI50 is 19.7 µM (inactive) in the test with SK-MEL-28; 97.7 µM (inactive) with SK-OV-3; 17.9 µM (inactive) in the test on Malme-3M; 28 µM (inactive) with OVCAR-3; 17.5 µM (inactive) in the test with K562; 21 µM (inactive) with HCT-116. The GI50 was 17.5 µM (inactive) in the test with HT-29; 22.8 µM (inactive) in the test on OVCAR-4; 22.8 µM (inactive) in the test with TK-10; 29.4 µM in the test on HCT-15; 17.9 µM (inactive) with OVCAR-8.

As to `Nc1nc(N)c(CCCCc2ccccc2)c(C=O)n1`, the GI50 with SK-MEL-28 is 15.9 µM (inactive); in the test with SK-OV-3, 31.1 µM (inactive); in the test with Malme-3M it was 18.1 µM (inactive); in the test with OVCAR-3 it was 14.3 µM (inactive); in the test with OVCAR-5, > 100 µM (inactive); with A498 it was > 100 µM (inactive). In addition, the GI50 is 5.81 µM (inactive) in the test with K562; 13.1 µM (inactive) in the test on HCT-116; 13.6 µM (inactive) with UACC-257; 9.62 µM (inactive) in the test on HT-29; 23.9 µM (inactive) with OVCAR-4; 27.6 µM (inactive) with TK-10. The GI50 with HCT-15 is 14.7 µM; in the test on OVCAR-8 it was 16.3 µM (inactive).

Regarding `COc1cc(OC)cc(N2CCC(c3c(N)nc(N)nc3Cl)CC2)c1`, the GI50 in the test on SK-MEL-28 is 52.8 µM (inactive); in the test with SK-OV-3 it was > 100 µM (inactive); in the test on HL-60, 18 µM (inactive); with Malme-3M it was 31 µM (inactive); in the test on OVCAR-3, 83.9 µM (inactive); in the test on OVCAR-5, > 100 µM (inactive). Also, the GI50 with K562 was 31.6 µM (inactive); in the test on UACC-257, 43.7 µM (inactive); with RXF 393, > 100 µM (inactive); in the test on OVCAR-4 it was 91.8 µM (inactive); with TK-10, > 100 µM (inactive); with HCT-15, 99.5 µM. In addition, the GI50 in the test with OVCAR-8 was > 100 µM (inactive).

As for `Cc1cc2c(=O)c3ccccc3[nH]c2c(C(N)=O)c1C`, the GI50 in the test with SK-MEL-28, with SK-OV-3, in the test on Malme-3M, with OVCAR-3, with OVCAR-5 and in the test on K562 was > 100 µM (inactive) each time. Moreover, the GI50 in the test with HCT-116, in the test with UACC-257, in the test with RXF 393, with HT-29, in the test on OVCAR-4 and in the test on TK-10 was > 100 µM (inactive) throughout. In addition, the GI50 in the test on HCT-15 was above 100 µM; in the test with OVCAR-8, > 100 µM (inactive).

Regarding `C=CC1[C@H]2COC(C)(C)O[C@@H]2CC(=O)C1(C)C` (stereo partly specified), the GI50 in the test on SK-MEL-28, in the test with HL-60, in the test with Malme-3M, with OVCAR-5, in the test on HCT-116 and with UACC-257 was > 100 µM (inactive) in each case. The GI50 in the test with RXF 393 is 94.8 µM (inactive); in the test on HT-29 it was > 100 µM (inactive); in the test on OVCAR-4, > 100 µM (inactive); in the test with TK-10 it was > 100 µM (inactive); in the test on OVCAR-8 it was > 100 µM (inactive).
